Experiment: Solubility of fluindapyr in test solvent at 140 g/L, crystal growth check after one week at 0° C.
Format: physicochemical
Design: key: PASS: A solution without crystal growth under the storage condition was considered a Pass
Experimental: In order to test the solubility of an active ingredient comprising an aminoindane amide active compound, fluindapyr was added into a test solvent at the concentration of 140 g/L under sufficient agitation. The test solvents were selected based on Hansen Solubility Parameters with a Relative Energy Difference (RED) of between 0.7 and 1.6. The completed dissolved solutions were further stored for one week at 0° C. to check if any crystals grew or not under the storage condition.

SMILES: CC1CC(C)(C)c2c(F)ccc(NC(=O)c3cn(C)nc3C(F)F)c21 (centres unmarked) [fluindapyr]
- Dissolution (solvent 2-ethylhexanol): FAIL
- Dissolution (solvent N,N-dimethyldecanamide): PASS
- Dissolution (solvent N-butyl acetate): FAIL
- Dissolution (solvent N-heptane): FAIL
- Dissolution (solvent O-dichlorobenzene): FAIL
- Dissolution (solvent POWERBLOX SV-17): FAIL
- Dissolution (solvent acetonitrile): FAIL
- Dissolution (solvent dibutyl ether): FAIL
- Dissolution (solvent diethylene glycol monoethyl ether): PASS
- Dissolution (solvent diethylene glycol monomethyl ether): PASS
- Dissolution (solvent diethylene glycol n-butyl ether acetate): FAIL
- Dissolution (solvent diisobutyl ketone): FAIL
- Dissolution (solvent dimethyl formamide): FAIL
- Dissolution (solvent dipropylene glycol methyl ether acetate): FAIL
- Dissolution (solvent dipropylene glycol n-butyl ether): FAIL
- Dissolution (solvent dipropylene glycol n-propyl ether): FAIL
- Dissolution (solvent dipropyleneglycol phenyl ether): FAIL
- Dissolution (solvent ethoxytriglycol): FAIL
- Dissolution (solvent ethylene glycol monobutyl ether): FAIL
- Dissolution (solvent ethylene glycol n-butyl ether acetate): FAIL
- Dissolution (solvent ethylene glycol phenyl ether): FAIL
- Dissolution (solvent isobutyl heptyl ketone): FAIL
- Dissolution (solvent methyl alcohol): FAIL
- Dissolution (solvent methyl ethyl ketone): FAIL
- Dissolution (solvent methyl isobutyl ketone): FAIL
- Dissolution (solvent perchloroethylene): FAIL
- Dissolution (solvent propylene carbonate): FAIL
- Dissolution (solvent propylene glycol): FAIL
- Dissolution (solvent propylene glycol diacetate): FAIL
- Dissolution (solvent propylene glycol monomethyl ether acetate): FAIL
- Dissolution (solvent propylene glycol n-butyl ether): FAIL
- Dissolution (solvent propylene glycol phenyl ether): FAIL
- Dissolution (solvent tetrahydrofuran): FAIL
- Dissolution (solvent toluene): FAIL
- Dissolution (solvent tripropylene glycol n-butyl ether): FAIL

Reference: patent US11596151B2, “Compositions for the protection of agrarian crops and use thereof” (priority 2017, dated 2023)
